Laboratory results as given in patent US20030138500A1 (priority 2001, published 2003).

Tests used:
Type in all cases: in vivo
[1] = tested on: Green peach aphids, Myzus persicae (Sulzer); experiment: Mortality of green peach aphids sprayed on plate glass (60 seconds exposure); settings: Example 12, Table 12; after 1 day; concentration in label
Experimental: Green peach aphids, Myzus persicae (Sulzer), were obtained from a colony and transferred to plate glass for treatment. Treatments were then applied with a hand-held trigger sprayer to wetting and aphids remained exposed to treatments for 60 seconds. After treatment, aphids were transferred to filter paper lined petri dishes and dishes were randomized on a lab bench in a completely randomized design. Treatments consisted of 10 replicates of 10 aphids each. Mortality was assessed after 1 day.

[2] = tested on: twospotted spider mites, Tetranychus urticae Koch; experiment: Mortality of adult twospotted spider mites on bush bean leaves after spray treatment; settings: two days after treatment, concentration in label
Experimental: Adult twospotted spider mites, Tetranychus urticae Koch, were obtained from a colony and 25 mites per leaf were placed on bush bean plants (one leaf per replicate). Mites were allowed to settle overnight and then treatments were applied to wetting on top and bottom leaf surfaces using a hand-held trigger sprayer. After treatment, plants were randomized on a lab bench in a randomized block design. Treatments consisted of 9 replicates of 1 plant each. Mortality was assessed 2 days following treatment.
Adult twospotted spider mites, Tetranychus urticae Koch, were obtained from a colony and 25 mites per leaf were placed on bush bean plants (one leaf per replicate). Mites were allowed to settle overnight and then treatments were applied to wetting on top and bottom leaf surfaces using a hand-held trigger sprayer. After treatment, plants were randomized on a lab bench in a randomized block design. Treatments consisted of 10 replicates of 1 plant each. Mortality was assessed 2 days following treatment.

[3] = tested on: green peach aphid, Myzus persicae (Sulzer); experiment: Mortality of green peach aphids on infested radish plants after spray treatment; settings: Example 4, Table 4, after 2 days, concentration in label
Experimental: Radish plants were placed in a colony for 4 days for infestation with green peach aphid, Myzus persicae (Sulzer). Treatments were then applied with a hand-held trigger sprayer to wetting on all leaf surfaces. After treatment, plants were randomized on a lab bench in a completely randomized block design. Treatments consisted of 8 replicates of 1 plant each. Mortality was assessed after 2 days by counting the live and dead aphids on all leaves.

Compound | Observed % Mortality [1] [%] | Observed % Mortality ([2]; Example 11, Table 11, adult female mites on bush bean) [%] | Observed % Mortality [3] [%] | Observed % Mortality ([2]; Example 2, Table 2, adult female mites on bush bean) [%] | Observed % Mortality ([2]; Example 3, Table 3, mites on bush bean) [%]
CC1(C)C(C=C(Cl)Cl)C1C(=O)OCc1cccc(Oc2ccccc2)c1 (centres unmarked) [Permethrin] | 84.0 | 26.2 |  |  | 
S1SSSSSSS1 [Powdered Sulfur (0.2% ai sulfur), Sulfur] |  |  | 1.3 | 4.5 | 2.6
